Source: patent publication US20040259942A1, “Modulation of stat activity” (priority 2001, published 2004)
“Also recorded” adds a separate entry of the source.

How the values were obtained:
Format in all cases: cell-based, human
[1] = test system: autocrine factor release from BR293 cells; assay: Autocrine factor release: CM from pre-treated serum-stimulated cells tested for STAT3 phosphorylation; details: 100 μM (FIG. 18d)
Method: OdDHL blocks the autocrine release of mitogens from BC cells (a) Equal numbers of BR293 cells were cultured in MEM alone, serum-free MEM conditioned by serum-stimulated BR293 cells for 2 hours, or the same supplemented with 5% FCS, as indicated. After 24 hours [^3H]-thymidine was added to the medium. After a further 18 hours, cells were harvested and analysed for incorporation of ^3H. Error bars denote SD (n=4). (b) BR293 cells were serum-starved (lane 1) or starved and stimulated with 10% FCS for 2 hours directly (lane 2) or after pretreatment with α-amanitin (1004/ml) for 2.5 hours (lane 3) or actinomycin D ([…]) for 10 min (lane 4). […] (c) BR293 cells were serum-starved (lane 1) or starved and stimulated with 10% FCS alone for 2 hours (lane 2), with serum-free CM alone for 15 min (lane 5) or in the presence of increasing 100 μM AG490 (lanes 3 and 6) or 100 μM OdDHL (lanes 4 and 7). Cell lysates were prepared and analysed by Western blotting as described in the legend to FIG. 1a. (d) BR293 cells were stimulated with 10% FCS in the presence of 100 μM OHHL (lane 1) or OdDHL (lane 2). After 2 hours the cells were washed and incubated for a further 2 hours in serum-free MEM. […] Lysates were prepared from all the cells and analysed by Western blotting as described in the legend to FIG. 1a.

MDA-MB-468 cells = assay: Cell proliferation assay (cell counting); details: over a 48-hour period
Method: Equal numbers of BR293 and MDA-MB-468 cells were seeded in MEM containing 10% FCS into 10 cm dishes. […]. For the 48 time points, fresh medium containing the appropriate inhibitor was applied to the cells after 24 hours. Controls were allowed to grow for 48 hours in the absence of inhibitor. Thereafter, all the cells were washed twice with ice cold PBS, harvested and counted under a phase-contrast microscope. Values are expressed as averages+S.D. (n=3).
(§1) Equal numbers of BR293, MCF-10F, MCF-7, MDA-MB-468, HKEK293 and COS1 cells were seeded in the appropriate growth medium into 10 cm dishes. Cells were allowed to grow in the presence of various concentrations of OdDHL or OHHL for 24 or 48 hours. For the 48-hour time points, fresh medium containing the appropriate inhibitor was applied to the cells after 24 hours. Controls were allowed to grow for 48 hours in the absence of inhibitor. Thereafter, all the cells were washed twice with ice cold PBS, harvested and counted under a phase-contrast microscope. Values are expressed as averages ±S.D. (n=3).

HEK293 cells = assay: Cell proliferation assay (cell counting); details: cells with constitutive STAT3 activity; 48 hours
Method: as §1

MCF-7 cells = assay: Cell proliferation assay (cell counting); details: over a 48-hour period
Method: as §1

MCF-10F cells = assay: Cell proliferation assay (cell counting); details: non-tumorigenic breast epithelial cells; 48 hours
Method: Breast cancer cell lines (BR293, MCF-7 and MDA-MB-468) were maintained in Minimum Essential Medium Eagle (MEM, Sigma) supplemented with 10% foetal calf serum (FCS), 1% MEM non-essential amino acids, 1% glutamine and 1% penicillin-streptomycin at 37° C. under 5% CO2. […] These cell lines are well-known, and widely available to persons in the field. In particular, the following lines are deposited with the American Type Culture Collection (ATTC) with the following identifying codes:
as §1

p46/p54 JNK/SAPK = assay: JNK/SAPK phosphorylation in anisomycin-treated cells (Western blotting); details: BR293 cells treated with anisomycin
Method: (§2) ERKs are unaffected by OdDHL (a) BR293 cells were serum-starved (lane 1) or starved and stimulated with TPA for 30 min alone (lane 2) or in the presence of increasing concentrations of OdDHL (lanes 3-6) or 100 μM OHHL (lane 7). Cell lysates were prepared and analysed by Western blotting for ERK phosphorylation with an antibody specific for phospho-ERK½ (upper panel) and for ERK content with an antibody against ERKs (lower panel). (b) BR293 cells were serum-starved (lane 1) or starved and stimulated with Anisomycin for 30 min alone (lane 2) or in the presence of increasing concentrations of OdDHL (lanes 3-6) or 100 μM OHHL (lane 7). Cell lysates were prepared and analysed by Western blotting for JNK/SAPK phosphorylation with an antibody specific for phospho-JNKs (upper panel) and for SAPK/JNK content with an antibody against JNKs (lower panel). (c) BR293 cells were treated as described in (b) and lysates were analysed by Western blotting for p38^MAPK phosphorylation with an antibody specific for phospho-p38 (upper panel) and for p38 content with an antibody against p38 (lower panel).

p38^MAPK = assay: p38 MAPK phosphorylation in anisomycin-treated cells (Western blotting); details: BR293 cells treated with anisomycin
Method: as §2

STAT3 = assay: EGF-induced STAT3 phosphorylation (Western blotting, Y705); details: MDA-MB-468 cells; co-treatment 100 μM
Method: EGF-R was immunoprecipitated from cell lysates and analysed by Western blotting tyrosine phosphorylation with an anti phosphotyrosine antibody (upper panel, top) and EGF-R content with an anti-EGF-R antibody (lower panel, top). Cell lysates were analysed in parallel for STAT3 phosphorylation with an antibody specific for STAT3 phosphorylated on Y705 (upper panel, bottom) and for STAT3 content with an antibody for STAT3 (lower panel, bottom). […] The inclusion of an anti-STAT3 antibody in duplicate binding reactions (even lanes) identifies STAT3-containing heterodimers (3:1), as indicated to the right of the panel. (c) COS-1 cells were transfected with an expression vector for STAT3, a STAT3-responsive luciferase reporter (SIE2-luc) and a control gene for β-galactosidase. […] After 6 hours cells were harvsted and reporter gene expression analysed. Results are normalised against β-galactosidase values and expressed as averages +/−SD (n=3).

CCCCCCCCCC(=O)CC(=O)N[C@H]1CCOC1=O [OdDHL, N-(3-oxo-dodecanoyl)-L-homoserine lactone]
STAT3 phosphorylation induced by CM from serum-stimulated cells pre-treated with the compound [1]: unable to stimulate STAT3 phosphorylation; also recorded: failed to induce STAT3 phosphorylation
inhibition of proliferation (MDA-MB-468 cells): 70%-80%
growth sensitivity to treatment (HEK293 cells): sensitive
inhibition of proliferation (MCF-7 cells): 70%-80%
effect on proliferation (MCF-10F cells): slight
p46/p54 JNK/SAPK phosphorylation (p46/p54 JNK/SAPK): modest but reproducible inhibition
p38^MAPK phosphorylation (p38^MAPK): modest but reproducible inhibition
STAT3 phosphorylation in response to EGF (STAT3): augmented
